In patent publication EP4527946A1, “METHOD FOR PREDICTING THE RESPONSE TO A DUAL S[…] KINASE TTK INHIBITOR THERAPY” (Pangaea Oncology, S.A, priority 2023, dated 2025):

Key:
A549 = assay: Cell viability (MTT) assay; format: cell-based; settings: Homo sapiens, A549, origin LA, Td 22 h, drug for 2-3 doubling times
Procedure: (§1) Each concentration of drug was tested in sextuplicates. […] Data were derived from at least two independent experiments. […]

DU-145 = assay: Cell viability (MTT) assay; format: cell-based; settings: Homo sapiens, DU-145, origin Pr, Td 30 h, drug for 2-3 doubling times
Procedure: as §1

EBC-1 = assay: Cell viability (MTT) assay; format: cell-based; settings: Homo sapiens, EBC-1, origin LS, Td 42 h, drug for 2-3 doubling times
Procedure: as §1

FADU = assay: Cell viability (MTT) assay; format: cell-based; settings: Homo sapiens, origin HNSCC, Td 30 h, drug for 2-3 doubling times
Procedure: as §1

HCC366 = assay: Cell viability (MTT) assay; format: cell-based; settings: HCC366, origin LA, Td 65 h, drug for 2-3 doubling times
Procedure: as §1

HCC78 = assay: Cell viability (MTT) assay; format: cell-based; settings: Homo sapiens, HCC78, origin LA, Td 38 h, drug for 2-3 doubling times
Procedure: as §1

LC-2/ad = assay: Cell viability (MTT) assay; format: cell-based; settings: Homo sapiens, origin LA, Td 58 h, drug for 2-3 doubling times
Procedure: as §1

MDA-MB-231 = assay: Cell viability (MTT) assay; format: cell-based; settings: Homo sapiens, MDA-MB-231, origin Breast, Td 25 h, drug for 2-3 doubling times
Procedure: as §1

MDA-MB-468 = assay: Cell viability (MTT) assay; format: cell-based; settings: Homo sapiens, MDA-MB-468, origin Breast, Td 35 h, drug for 2-3 doubling times
Procedure: as §1

MIA-PaCa-2 = assay: Cell viability (MTT) assay; format: cell-based; settings: Homo sapiens, MIA-PaCa-2, origin Pancreas, Td 26 h, drug for 2-3 doubling times
Procedure: as §1

NCI-H1819 = assay: Cell viability (MTT) assay; format: cell-based; settings: NCI-H1819, origin LA, Td 51 h, drug for 2-3 doubling times
Procedure: as §1

NCI-H1975 = assay: Cell viability (MTT) assay; format: cell-based; settings: Homo sapiens, NCI-H1975, origin LA, Td 39 h, drug for 2-3 doubling times
Procedure: as §1

NCI-H2228 = assay: Cell viability (MTT) assay; format: cell-based; settings: Homo sapiens, NCI-H2228, origin LA, Td 96 h, drug for 2-3 doubling times
Procedure: as §1

NCI-H23 = assay: Cell viability (MTT) assay; format: cell-based; settings: Homo sapiens, NCI-H23, origin LA, Td 38 h, drug for 2-3 doubling times
Procedure: as §1

NCI-H3122 = assay: Cell viability (MTT) assay; format: cell-based; settings: Homo sapiens, NCI-H3122, origin LA, Td 49 h, drug for 2-3 doubling times
Procedure: as §1

RT-112 = assay: Cell viability (MTT) assay; format: cell-based; settings: Homo sapiens, RT-112, origin UB, Td 24 h, drug for 2-3 doubling times
Procedure: as §1

SK-MES-1 = assay: Cell viability (MTT) assay; format: cell-based; settings: Homo sapiens, SK-MES-1, origin LS, Td 50 h, drug for 2-3 doubling times
Procedure: as §1

SK-OV-3 = assay: Cell viability (MTT) assay; format: cell-based; settings: Homo sapiens, SK-OV-3, origin Ovarian, Td 48 h, drug for 2-3 doubling times
Procedure: as §1

SNU-C1 = assay: Cell viability (MTT) assay; format: cell-based; settings: Homo sapiens, SNU-C1, origin Colon, Td 31 h, drug for 2-3 doubling times
Procedure: as §1

T98G = assay: Cell viability (MTT) assay; format: cell-based; settings: Homo sapiens, origin GB, Td 22 h, drug for 2-3 doubling times
Procedure: as §1

WM793 = assay: Cell viability (MTT) assay; format: cell-based; settings: Homo sapiens, WM793, origin Melan., Td 48 h, drug for 2-3 doubling times
Procedure: as §1

[1] = test system: EGFR TKI-resistant clones derived from the PC9 cell line and from 11-18 cells; assay: Dose-response (cell viability) in EGFR TKI-resistant clones; format: cell-based; settings: Homo sapiens
Description: All parental cell lines used in the study were purchased from the ATCC or other cell banks, with the exception of PC9 and 11-18. Parental PC9 cells were provided by F. Hoffman-La Roche Ltd (Basel, Switzerland) with the authorization of Dr. Mayumi Ono (Kyushu University, Fukuoka, Japan); while parental 11-18 cells were kindly provided by Dr. Mayumi Ono. Resistant cells were derived by exposing parental cells to EGFR TKIs, as described in [Bertran-Alamillo et al., (2019) AURKB as a target in non-small cell lung cancer with acquired resistance to anti-EGFR therapy. Nat Commun 10, 1812, and Jacobsen K, et al., (2017) Convergent Akt activation drives acquired EGFR inhibitor resistance in lung cancer. […] All tumor cells were grown in a humidified atmosphere with 5% CO2 at 37°C in RPMI 1640 + 10% fetal bovine serum (FBS), 50 µg/mL penicillin-streptomycin and 2 mM L-Glutamine. Cell lines were routinely tested for mycoplasma contamination and authenticated by analyzing >20 polymorphisms using a 30-gene panel NGS.
as §1

PC9-ER = assay: cells; settings: Homo sapiens, PC-9/ER, read-out: IC50s
Procedure: as §1

PC9-ER and PC-GR4 clones = assay: Flow cytometry (cell cycle, annexin V/PI) in clones; format: cell-based; settings: 50 nM
Procedure: (§2) For cell cycle analyses, cells were plated in T-25 flasks, allowed to attach, treated with drugs in RPMI 1640 + 10% FBS, trypsinised and centrifuged. Cell pellets were resuspended in PBS, fixed in 70% ethanol and incubated o/n at -20 °C. Fixed cells were subsequently re-centrifuged at 400 xg for 5 min at 4 °C; resuspended in 250 µL of PBS with 50 µg/mL RNAse A (Sigma Aldrich, Saint Louis, MO), incubated for 1 h at 37 °C and stained with propidium iodide (PI) (Roche Diagnostics, Basel, Switzerland) for 30 min at room temperature.
(§3) For cell death analyses, the Annexin-V-FLUOS (An) staining kit (Roche Diagnostics) was employed, according to the manufacturer's instructions. Stained cells were sorted with a FACSCanto II cytometer (BD Biosciences, Franklin Lakes, NJ) using the FACSDiva software version 6.1.2. The combination of Annexin V and PI was used to differentiate four cell populations; viable cells (An -/PI-), early apoptotic (An+/PI-), necrotic (An-/PI+) and later apoptotic/necrotic (An+/PI+).

NCl-H1819 cells = assay: Flow cytometry (cell cycle, Annexin V); format: cell-based; settings: TTKi sensitive NCl-H1819 cells
Procedure: as §2, §3

Work on `COc1ccc(Oc2cc(NCCC(F)(F)F)c3ncc(-c4ccc(C(=O)NC5CC5)c(C)c4)n3n2)c(F)c1F` [BAY1217389] yielded an IC50 (A549) of over 1000 nM, an IC50 (DU-145) of over 1000 nM and an IC50 (EBC-1) of 4.6 ± 0.6 nM. The IC50 (FADU) was over 1000 nM, the IC50 (HCC366) was over 1000 nM and the IC50 (HCC78) was over 1000 nM. The IC50 (LC-2/ad) was 3.6 ± 0.3 nM, the IC50 (MDA-MB-231) was over 1000 nM and the IC50 (MDA-MB-468) was 4.1 ± 0.3 nM. It also gave an IC50 (MIA-PaCa-2) of over 1000 nM, an IC50 (NCI-H1819) of 2.6 ± 0.3 nM and an IC50 (NCI-H1975) of over 1000 nM. The IC50 (NCI-H2228) was over 1000 nM, the IC50 (NCI-H23) was over 1000 nM and the IC50 (NCI-H3122) was 7.2 ± 0.5 nM. It also gave an IC50 (RT-112) of 3.8 ± 0.3 nM, an IC50 (SK-MES-1) of over 1000 nM and an IC50 (SK-OV-3) of over 1000 nM. It also gave an IC50 (SNU-C1) of over 1000 nM, an IC50 (T98G) of over 1000 nM and an IC50 (WM793) of over 1000 nM. The IC50 ([1]; PC-9, six clones sensitive to the TTKi) was under 1 nM, the IC50 ([1]; PC-9, twelve TTKi resistant clones) was over 200 nM and the IC50 (PC9-ER) was over 10000 nM. For the same compound, the “effect after G2/M arrest (flow cytometry)” value (PC9-ER and PC-GR4 clones; resistant clones) was “extensive polyploidy”, the “effect after G2/M arrest (flow cytometry)” value (PC9-ER and PC-GR4 clones; sensitive clones) was “cell death” and the “cell death (Annexin V)” value (NCl-H1819 cells) was “extensive induction of cell death”. For the same compound, the “cell cycle effect (flow cytometry)” value (NCl-H1819 cells; 50 nM) was “G2/M arrest”.
